# Test results from PMC11487905, “Dalbavancin-resistant Staphylococcus epidermidis in vivo selection following a prosthetic joint infection: phenotypic and genomic characterization” (JAC-Antimicrobial Resistance, 2024).
# Legend:
# [1] = test system: linezolid-resistant MDR S. epidermidis (LR-MDRSE) isolates; assay: microbe, parasite or virus in culture; assay type: cell-based, Staphylococcus epidermidis; details: for Increase of MIC between isolates: STA1 (Day 24) to STA3 (Day 240)
# Protocol: Isolates were identified by MALDI-TOF mass spectrometry (VITEK MS, bioMérieux, Marcy-l’Étoile, France). Antibiotic susceptibility testing was performed using the AST-P668 bioMérieux card using a VITEK XL automated system (bioMérieux). Dalbavancin, ceftaroline, delafloxacin, tigecycline and daptomycin MICs were determined using a 0.5 McFarland bacterial inoculum on Mueller–Hinton agar plates with gradient strips (Liofilchem, Roseto degli Abruzzi, Italy) incubated for 24 h at 35°C. Interpretation of the susceptibility was made according to the EUCAST 2022 criteria.
# LR-MDRSE PJI = assay type: in vivo, patient
# Protocol: A person underwent a revision of a medial unicompartmental knee arthroplasty to total knee arthroplasty (TKA) for progressive arthritis of the lateral joint.
# It was subsequently decided to perform debridement, antibiotics and implant retention (DAIR) with a change of modular implants. […] A treatment shift to dalbavancin 1500 mg IV on Days 35, 49, 71 and 106, combined with doxycycline 200 mg/day for 3 months was initiated.
# The evolution was considered unfavourable due to a loco-regional inflammatory syndrome with persistent chronic pain.
# A revision of the knee was decided upon, with five bacteriological samples collected. As previously, they tested positive with the same LR-MDRSE strain (Day 371). Ceftaroline (1800 mg/day) and doxycycline (200 mg/day) combination treatment was administered for the next 12 weeks. […] His C-reactive protein level was <4 mg/L (reference range: <4 mg/L). However, suppressive doxycycline therapy was maintained (200 mg/day).
# [2] = Dalbavancin therapeutic drug monitoring: plasma trough concentration and extrapolated fAUC0–24/MIC; assay type: in vivo, patient; details: for Plasma trough concentration: 1500 mg IV, LC-MS
# From the text: We therefore used this methodology for fAUC0–24 determination.
# S. aureus = details: seven isolates of S. aureus (including four vancomycin-intermediate strains); ref 14 (Lepak et al.); cited from earlier work
# From the text: fAUC0–24/MIC best correlates with in vivo efficacy of dalbavancin.[13]
# [3] = cited from earlier work
# Protocol: Dalbavancin has a similar mechanism of action and spectrum as vancomycin but with increased potency, higher protein binding and an elimination half-life up to 60 times longer.[10] […] N ... || Because of the long-term duration, dalbavancin therapeutic drug monitoring was performed. Plasma trough concentrations were measured using a validated LC coupled with MS method (Acquity UPLC® BEH C18 and Acquity QDA, Waters, France). […] We therefo ... || Moreover, the clinical infections caused by biofilms poses a serious threat to public health. Staphylococcus spp. biofilms stand out as one of the most prevalent, especially in osteoarticular infection and PJI. […] Thus, new therapeutic strategies targeting biofilms and MDR bacteria are urgently needed.
# [4] = Staphylococcus epidermidis, isolate STA1, Day 24, gradient strip, 0.5 McFarland, Mueller–Hinton agar, 24 h at 35°C
# [5] = Staphylococcus epidermidis, isolate STA3, Day 240, gradient strip, 0.5 McFarland, Mueller–Hinton agar, 24 h at 35°C
# [6] = Staphylococcus epidermidis, 576 h
# [7] = ceftaroline 1800 mg/day combined with doxycycline 200 mg/day for 12 weeks after knee revision
# [8] = after four injections of dalbavancin 1500 mg IV
smiles,measurement,setting,value
Nc1nc(-n2cc(C(=O)O)c(=O)c3cc(F)c(N4CC(O)C4)c(Cl)c32)c(F)cc1F [Delafloxacin],MIC,[1]; [4],1 µg/mL
same,MIC,[1]; [5],8 µg/mL
Cc1onc(-c2ccccc2)c1C(=O)N[C@@H]1C(=O)N2[C@@H]1SC(C)(C)[C@@H]2C(=O)O [Oxacillin],MIC,[1]; Staphylococcus epidermidis,> 2 µg/mL
same,MIC,[1]; [6],> 2 µg/mL
CC(=O)NC[C@H]1CN(c2ccc(N3CCOCC3)c(F)c2)C(=O)O1 [Linezolid],Susceptibility of the strain (in words),"[1]; STA1, Day 24",resistant
same,MIC,[1]; Staphylococcus epidermidis,> 4 µg/mL
same,MIC,[1]; [6],> 4 µg/mL
COc1cccc(OC)c1C(=O)N[C@@H]1C(=O)N2[C@@H]1SC(C)(C)[C@@H]2C(=O)O [methicillin],Susceptibility of the strain (in words),"[1]; STA1, Day 24",resistant
CCO/N=C(\C(=O)N[C@@H]1C(=O)N2C(C(=O)[O-])=C(Sc3nc(-c4cc[n+](C)cc4)cs3)CS[C@H]12)c1nsc(N)n1 [Ceftaroline],Susceptibility of the strain (in words),"[1]; STA1, Day 24",susceptible
same,Susceptibility of the strain (in words),"[1]; STA3, Day 240",susceptible
same,MIC,[1]; [4],1 µg/mL
same,MIC,[1]; [5],0.75 µg/mL
same,Clinical evolution under treatment,LR-MDRSE PJI; [7],favourable
same,Tolerability of treatment,LR-MDRSE PJI; [7],well tolerated
CC(=O)O[C@H]1C[C@@]2(C)[C@@H](C[C@@H](O)[C@H]3[C@@]4(C)CC[C@@H](O)[C@@H](C)[C@@H]4CC[C@@]32C)/C1=C(\CCC=C(C)C)C(=O)O [Fusidic acid],MIC,[1]; Staphylococcus epidermidis,> 4 µg/mL
same,MIC,[1]; [6],> 4 µg/mL
CC[C@H]1OC(=O)[C@H](C)[C@@H](O[C@H]2C[C@@](C)(OC)[C@@H](O)[C@H](C)O2)[C@H](C)[C@@H](O[C@@H]2O[C@H](C)C[C@H](N(C)C)[C@H]2O)[C@](C)(O)C[C@@H](C)C(=O)[C@H](C)[C@@H](O)[C@]1(C)O [Erythromycin],MIC,[1]; Staphylococcus epidermidis,> 4 µg/mL
same,MIC,[1]; [6],> 4 µg/mL
CNC(C)C1CCC(N)C(OC2C(N)CC(N)C(OC3OCC(C)(O)C(NC)C3O)C2O)O1 (centres unmarked) [Gentamicin],MIC,[1]; Staphylococcus epidermidis,> 8 µg/mL
same,MIC,[1]; [6],> 8 µg/mL
CCCCCCCCCC(=O)N[C@@H](Cc1c[nH]c2ccccc12)C(=O)N[C@H](CC(N)=O)C(=O)N[C@@H](CC(=O)O)C(=O)N[C@@H]1C(=O)NCC(=O)N[C@@H](CCCN)C(=O)N[C@@H](CC(=O)O)C(=O)N[C@H](C)C(=O)N[C@@H](CC(=O)O)C(=O)NCC(=O)N[C@H](CO)C(=O)N[C@@H]([C@H](C)CC(=O)O)C(=O)N[C@@H](CC(=O)c2ccccc2N)C(=O)O[C@@H]1C [Daptomycin],Increase of MIC between isolates,[1]; [8],6 fold
CN(C)c1cc(NC(=O)CNC(C)(C)C)c(O)c2c1C[C@H]1C[C@H]3[C@H](N(C)C)C(O)=C(C(N)=O)C(=O)[C@@]3(O)C(O)=C1C2=O [Tigecycline],MIC,[1]; [4],0.19 µg/mL
same,MIC,[1]; [5],0.25 µg/mL
CN[C@H]1C(=O)N[C@@H]2Cc3ccc(cc3)Oc3cc4cc(c3O[C@@H]3O[C@H](C(=O)O)[C@@H](O)[C@H](O)[C@H]3NC(=O)CCCCCCCCC(C)C)Oc3ccc(cc3Cl)[C@@H](O)[C@@H]3NC(=O)[C@H](NC(=O)[C@@H]4NC(=O)[C@@H](NC2=O)c2cc(cc(O)c2Cl)Oc2cc1ccc2O)c1ccc(O)c(c1)-c1c(O[C@H]2O[C@H](CO)[C@@H](O)[C@H](O)[C@@H]2O)cc(O)cc1[C@@H](C(=O)NCCCN(C)C)NC3=O [Dalbavancin],Increase of MIC between isolates,[1]; [8],4 fold
same,Susceptibility of the strain (in words),"[1]; STA1, Day 24",susceptible
same,Susceptibility of the strain (in words),"[1]; STA3, Day 240",resistant
same,MIC,"[1]; isolate STA1, Day 24, gradient strip, 0.5 McFarland, Mueller–Hinton agar, 24 h at 35°C",0.032 µg/mL
same,MIC,"[1]; isolate STA3, Day 240, gradient strip, 0.5 McFarland, Mueller–Hinton agar, 24 h at 35°C",0.5 µg/mL
same,Plasma trough concentration,"[2]; Day 49, 14 days after the last dose",18 mg/L
same,Calculated fAUC0–24/MIC ratio,"[2]; Day 49, assuming an MIC of 0.032 mg/L, extrapolated from single trough, 93% protein bound",945
same,Calculated fAUC0–24/MIC ratio,"[2]; Day 49, assuming an MIC of 0.5 mg/L",60
same,Plasma trough concentration,"[2]; Day 71, 22 days after the last dose",23.6 mg/L
same,Calculated fAUC0–24/MIC ratio,"[2]; Day 71, assuming an MIC of 0.032 mg/L",1239
same,Calculated fAUC0–24/MIC ratio,"[2]; Day 71, assuming an MIC of 0.5 mg/L",79
same,Plasma trough concentration,"[2]; Day 106, 35 days after the last dose",14.6 mg/L
same,Calculated fAUC0–24/MIC ratio,"[2]; Day 106, assuming an MIC of 0.032 mg/L",766.5
same,Calculated fAUC0–24/MIC ratio,"[2]; Day 106, assuming an MIC of 0.5 mg/L",49
same,Clinical outcome of treatment,"LR-MDRSE PJI; dalbavancin 1500 mg IV on Days 35, 49, 71 and 106, combined with doxycycline 200 mg/day for 3 months, after DAIR",treatment failure
same,fAUC0–24/MIC value for 1-log kill,S. aureus,53.3
same,fAUC0–24/MIC value for 2-log kill,S. aureus,111.1
same,fAUC0–24/MIC value for net stasis,S. aureus,27.1
same,Elimination half-life relative to vancomycin,[3],up to 60 times longer
same,Bound to plasma proteins,[3]; plasma,93%
same,Half-life,[3]; prolonged half-life,about 14 days
CC1COc2c(N3CCN(C)CC3)c(F)cc3c(=O)c(C(=O)O)cn1c23 (centres unmarked) [Ofloxacin],MIC,[1]; Staphylococcus epidermidis,> 4 µg/mL
same,MIC,[1]; [6],> 4 µg/mL
NC[C@H]1O[C@H](O[C@H]2[C@H](O)[C@@H](O[C@H]3O[C@H](CO)[C@@H](O)[C@H](N)[C@H]3O)[C@H](N)C[C@@H]2N)[C@H](N)C[C@@H]1O [Tobramycin],MIC,[1]; Staphylococcus epidermidis,> 8 µg/mL
same,MIC,[1]; [6],> 8 µg/mL
C[C@@H]1O[C@@H]1P(=O)(O)O [Fosfomycin],MIC,[1]; Staphylococcus epidermidis,> 64 µg/mL
same,MIC,[1]; [6],> 64 µg/mL
CO[C@H]1/C=C/O[C@@]2(C)Oc3c(C)c(O)c4c(O)c(c(/C=N/N5CCN(C)CC5)c(O)c4c3C2=O)NC(=O)/C(C)=C\C=C\[C@H](C)[C@H](O)[C@@H](C)[C@@H](O)[C@@H](C)[C@H](OC(C)=O)[C@@H]1C [Rifampin],Susceptibility of the strain (in words),"[1]; STA1, Day 24",resistant
same,MIC,[1]; Staphylococcus epidermidis,> 2 µg/mL
same,MIC,[1]; [6],> 2 µg/mL
CN[C@H](CC(C)C)C(=O)N[C@H]1C(=O)N[C@@H](CC(N)=O)C(=O)N[C@H]2C(=O)N[C@H]3C(=O)N[C@H](C(=O)N[C@H](C(=O)O)c4cc(O)cc(O)c4-c4cc3ccc4O)[C@H](O)c3ccc(c(Cl)c3)Oc3cc2cc(c3O[C@@H]2O[C@H](CO)[C@@H](O)[C@H](O)[C@H]2O[C@H]2C[C@](C)(N)[C@H](O)[C@H](C)O2)Oc2ccc(cc2Cl)[C@H]1O [Vancomycin],Increase of MIC between isolates,[1],> 5 fold
CCC[C@@H]1C[C@@H](C(=O)N[C@@H]([C@H]2O[C@H](SC)[C@H](O)[C@@H](O)[C@H]2O)[C@@H](C)O)N(C)C1 [Lincomycin],MIC,[1]; Staphylococcus epidermidis,> 8 µg/mL
same,MIC,[1]; [6],> 8 µg/mL
